Read-outs that look alike come from different tables or passages of the source. Positions of bridges follow the written chain, without caps; N, C: chain ends. Non-standard residues stand in square brackets, D forms with d. Residues, ends and D or L forms follow the SMILES beside them. 2Nal = N[C@@H](Cc1ccc2ccccc2c1)C(=O)O; Lys(iPr) = CC(C)NCCCC[C@H](N)C(=O)O; hTyr = N[C@@H](CCc1ccc(O)cc1)C(=O)O
Tests used:
[1] = molecular target: T1, CXCR4 (Homo sapiens, UniProt P61073); test: Competitive binding assay: [125I]SDF-1α displacement on CHO:CXCR4 cells; settings: [125I]SDF-1α competition on CHO:CXCR4 cells; given as ranges; read-out: IC50 (nM), Binding Affinity to CXCR4
T1 construct: expressed in transfected cells; host or cells: CHO:CXCR4 cells (gift from Drs. David McDermott and Xiaoyuan Chen, NIH)
Experimental: The Z138 mantle cell lymphoma cell line was given by Dr. Christian Steidl (BC Cancer) as a gift. The CHO:CXCR4 cell line was given by Drs. David McDermott and Xiaoyuan Chen (National Institutes of Health) as a gift. The cell line was cultured in a 5% CO2 atmosphere at 37° C. in a humidified incubator. The Z138 cells were incubated with IMDM medium (Life Technologies Corporations) and the CHO:CXCR4 cells were incubated with F12K medium (Life Technologies Corporations), both of which were supplemented with 10% fetal bovine serum (Sigma-Aldrich), 100 I.U./mL penicillin, and 100 μg/mL streptomycin (Penicillin-Streptomycin Solution).
CHO:CXCR4 cells were seeded at a density of 1×10^5 cells/well in 24-well poly-D-lysine coated plates (Corning BioCoat) and incubated with [^1251]SDF-1α (0.01 nM, PerkinElmer) and competing nonradioactive ligands ([…]). The cells, radioligand, and competing peptides were incubated for 1 h at 27° C. with moderate shaking. Following the incubation period, the supernatant was aspirated, followed by three washes with 1 mL of ice-cold PBS. Cells were harvested with 200 μL of trypsin and counted on a y counter. Data were plotted in GraphPad Prism 7 to determine IC50 values (GraphPad Software, Inc., La Jolla, CA). The values are reported as mean±standard deviation.

[2] = system: non-Hodgkin lymphoma, renal cell carcinoma, lung cancer, colorectal cancer, and breast cancer xenograft models; settings: colorectal and breast cancer xenografts; cited from earlier work
[3] = system: small cell lung cancer; settings: small cell lung cancer patients; cited from earlier work
[4] = molecular target: T1, CXCR4; settings: read-out: IC50, block of SDF-1α binding to CXCR4; cited from earlier work

T1 sequence (P61073 whole entry): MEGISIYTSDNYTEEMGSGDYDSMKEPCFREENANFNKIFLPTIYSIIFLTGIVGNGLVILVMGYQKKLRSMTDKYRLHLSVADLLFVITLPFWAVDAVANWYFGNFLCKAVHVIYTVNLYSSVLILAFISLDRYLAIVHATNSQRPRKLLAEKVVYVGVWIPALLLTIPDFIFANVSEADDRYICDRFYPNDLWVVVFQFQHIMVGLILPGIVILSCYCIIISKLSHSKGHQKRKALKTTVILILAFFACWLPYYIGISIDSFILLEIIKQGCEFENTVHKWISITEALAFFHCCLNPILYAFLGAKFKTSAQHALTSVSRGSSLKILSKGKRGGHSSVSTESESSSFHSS

IC50 [1] | Compound | other results
10 to 50 nM | CC(=O)NCCCC[C@@H]1NC(=O)CC[C@H](C(=O)N[C@@H](CCCCNC(C)C)C(N)=O)NC(=O)[C@@H](C)NC(=O)[C@H](Cc2ccc3ccccc3c2)NC(=O)[C@@H](CCCNC(=N)N)NC(=O)[C@H](CCCCNC(C)C)NC(=O)[C@H](CCC(N)=O)NC1=O [cyclo[Lys(Ac)-Gln-Lys(iPr)-D-Arg-2Nal-D-Ala-D-Glu]-Lys(iPr)] (K(Ac)Q[Lys(iPr)][dR][2Nal][dA][dE][Lys(iPr)]-NH2; lactam N-7) | –
50 to 100 nM | CC(=O)NCCCC[C@@H]1NC(=O)CC[C@H](C(=O)N[C@@H](CCCCNC(C)C)C(N)=O)NC(=O)[C@@H](C)NC(=O)[C@H](Cc2ccc3ccccc3c2)NC(=O)[C@@H](CCCNC(=N)N)NC(=O)[C@H](CCCCNC(C)C)NC(=O)[C@H](CCC(=O)O)NC1=O [cyclo[Lys(Ac)-Glu-Lys(iPr)-D-Arg-2Nal-D-Ala-D-Glu]-Lys(iPr)] (K(Ac)E[Lys(iPr)][dR][2Nal][dA][dE][Lys(iPr)]-NH2; lactam N-7) | –
1 to 10 nM | CC(=O)NCCCC[C@@H]1NC(=O)CC[C@H](C(=O)N[C@@H](CCCCNC(C)C)C(N)=O)NC(=O)CNC(=O)[C@H](Cc2ccc3ccccc3c2)NC(=O)[C@@H](CCCNC(=N)N)NC(=O)[C@H](CCCCNC(C)C)NC(=O)[C@H](Cc2ccc(O)cc2)NC1=O [cyclo[Lys(Ac)-Tyr-Lys(iPr)-D-Arg-2Nal-Gly-D-Glu]-Lys(iPr)] (K(Ac)Y[Lys(iPr)][dR][2Nal]G[dE][Lys(iPr)]-NH2; lactam N-7) | –
50 to 100 nM | CC(C)NCCCC[C@H](NC(=O)[C@H]1CCC(=O)N[C@@H](Cc2ccccc2)C(=O)N[C@H](Cc2ccc(O)cc2)C(=O)N[C@@H](CCCCNC(C)C)C(=O)N[C@H](CCCNC(=N)N)C(=O)N[C@@H](Cc2ccc3ccccc3c2)C(=O)N[C@H](C)C(=O)N1)C(N)=O [cyclo[Phe-D-Tyr-Lys(iPr)-DArg-2Nal-D-Ala-D-Glu]-Lys(iPr)] (F[dY][Lys(iPr)][dR][2Nal][dA][dE][Lys(iPr)]-NH2; lactam N-7) | –
50 to 100 nM | CC(C)C[C@H]1NC(=O)[C@H](Cc2ccc3ccccc3c2)NC(=O)[C@@H](CCCNC(=N)N)NC(=O)[C@H](CCCCNC(C)C)NC(=O)[C@H](Cc2ccc(O)cc2)NC(=O)[C@H](Cc2ccccc2)NC(=O)CC[C@H](C(=O)N[C@@H](CCCCNC(C)C)C(N)=O)NC1=O [cyclo[Phe-Tyr-Lys(iPr)-D-Arg-2Nal-D-Leu-D-Glu]-Lys(iPr)] (FY[Lys(iPr)][dR][2Nal][dL][dE][Lys(iPr)]-NH2; lactam N-7) | –
50 to 100 nM | CC(C)NCCCC[C@H](NC(=O)[C@H]1CCC(=O)N[C@@H](Cc2ccccc2)C(=O)N[C@@H](CCc2ccc(O)cc2)C(=O)N[C@@H](CCCCNC(C)C)C(=O)N[C@H](CCCNC(=N)N)C(=O)N[C@@H](Cc2ccc3ccccc3c2)C(=O)N[C@H](C)C(=O)N1)C(N)=O [cyclo[Phe-hTyr-Lys(iPr)-D-Arg-2-Nal-D-Ala-D-Glu]-Lys(iPr)] (F[hTyr][Lys(iPr)][dR][2Nal][dA][dE][Lys(iPr)]-NH2; lactam N-7) | –
– | cyclo[Phe-Tyr-Lys(iPr)-D-Arg-2-Nal-Gly-D-Glu]-Lys(iPr)-NH2 [LY2510924] | growth of xenograft models [2]: able to inhibit growth; treatment efficacy of carboplatin/etoposide chemotherapy [3]: failed to improve treatment efficacy; IC50 [4]: 0.079 nM
